Data: US20250387329A1 (priority 2022, published 2025)
In brackets after ≈: the same amount, converted by molar mass.

Columns and labels:
[1] = Solubility study with buffer (pH dependent solubility testing); details: thermodynamic from solid
Procedure: Solubility Study with Buffer (pH Dependent Solubility Testing)
A phase solubility study was performed for different buffers to analyse the effect of pH on the solubility of Orellanine. Four buffers were tested: • Acetate buffer pH 4.5 at 50 mM-prepared from 1.81 g sodium acetate and 14 ml of acetic acid (2N), adjusted up to 11 with water for injection (WFI). • Phosphate buffer pH 5.8 at 50 mM-prepared from 92 ml of NaH2PO4 and 8 ml of Na2HPO4, adjusted to 200 ml with WFI. • Phosphate buffer pH 6.8 at 50 mM-prepared from 51 ml of NaH2PO4 and 49 ml of Na2HPO4, adjusted to 200 ml with WFI. • Phosphate buffer pH 7.4 at 50 mM-prepared from 19 ml of NaH2PO4 and 81 ml of Na2HPO4, adjusted to 200 ml with WFI.
(§1) The pH of each buffer was adjusted with a pH meter and sodium hydroxide or hydrochloric acid at 0.2M.
Each suspension was centrifuged at 5300 rpm for 15 minutes. The supernatant was filtered with a 0.45 μm nylon filter.

[2] = Solubility study with different buffer concentrations at pH 7.4; details: phosphate buffer, pH 7.4, aqueous buffer, thermodynamic from solid; for solubility thermodynamic at 24 h: Concentration of Orellanine, pH adjusted to 7.4 after 3 hours, stirred 24 hours at room temperature
Procedure: Solubility Study with Different Buffer Concentrations at pH 7.4
The impact of buffer concentration was assessed. Three buffers were used: • Phosphate buffer pH 7.4 at 25 mM-prepared from 0.95 ml of NaH2PO4 (0.1M) and 4.05 ml of Na2HPO4 (0.1M), adjusted to 20 ml with WFI. • Phosphate buffer pH 7.4 at 50 mM-prepared from 19 ml of NaH2PO4 (0.1M) and 81 ml of Na2HPO4 (0.1M), adjusted to 200 ml with WFI. • Phosphate buffer pH 7.4 at 100 mM-prepared from 38 ml NaH2PO4 (0.1M) and 162 ml of Na2HPO4 (0.1M), adjusted to 200 ml with WFI.
as §1
(§2) The suspension was then stirred at 400 rpm for 24 hours at room temperature. Each suspension was filtered through a 0.2 μm PVDF syringe filter.

[3] = Solubility study with different buffer salts at pH 7.4; details: for solubility thermodynamic at 24 h: pH 7.4, aqueous buffer, thermodynamic from solid
Procedure: Solubility Study with Different Buffer Salts at pH 7.4
Four buffers at pH 7.4 and 50 mM were assessed: • Phosphate buffer pH 7.4 at 50 mM-prepared from 19 ml of NaH2PO4 (0.1M) and 81 ml of Na2HPO4 (0.1M), adjusted to 200 ml with WFI. • Phosphate buffer pH 7.4 at 50 mM-prepared from 28.1 ml of KH2PO4 (0.2M) and 21.9 ml of NaOH (0.2M) adjusted to 200 ml with WFI. • Tris-HCl buffer pH 7.4 at 50 mM-prepared from 54.7 ml of tris(hydroxymethyl)aminomethane (0.1M) and 45.3 ml of hydrochloric acid (0.1M), adjusted to 200 ml with WFI. • Citrate phosphate buffer pH 7.4 at 50 mM-prepared from 2.4 ml of citric acid monohydrate (0.2M) and 47.6 ml of Na2HPO4 (0.2M), adjusted to 200 ml with WFI.
as §1, §2

[4] = Solubility study with different ionic strengths at pH 7.4; details: phosphate buffer with sodium chloride, pH 7.4, aqueous buffer, thermodynamic from solid, Concentration of Orellanine, stirred 24 hours at room temperature
Procedure: Solubility Study with Different Ionic Strengths at pH 7.4
The ionic strength of the NaH2PO4—Na2HPO4 buffer was adjusted by adding sodium chloride. The ionic strength of the NaH2PO4—Na2HPO4 buffer at 50 mM was estimated at around 130 mM. The proportion of sodium chloride in added to the buffers was 0.41%, 0.98%, and 2.15%.
as §2

[5] = Formulation adjustment: solubility in selected buffers plus 0.70% NaCl, pH adjusted twice; details: pH 7.4, aqueous buffer, thermodynamic from solid
Procedure: Two buffers were selected: NaH2PO4—Na2HPO4 pH 7.4 and Citrate-Na2HPO4 PH 7.4 at 50 mM, each with addition of 0.70% sodium chloride. Adding 0.70% sodium chloride provides a solution close to isotonicity.
Formulations were prepared by weighing 40 mg of Orellanine into a 5 ml vial, adding 2 ml of buffer, stirring the suspension for 1 hour, adjusting the pH to 7.4 with sodium hydroxide (0.2M), stirring the suspension at 400 rpm for 24 hours at room temperature, and adjusting the pH to 7.4 with sodium hydroxide (0.2M). Each suspension was filtered through a 0.2 μm PVDF syringe filter.

human renal cancer cells = details: cells derived from a primary tumor or from metastatic tumor tissue; disclosed in WO 2010/040750; cited from earlier work

## [O-][n+]1ccc(O)c(O)c1-c1c(O)c(O)cc[n+]1[O-] [Orellanine]
[1]; acetate buffer, pH 4.5, aqueous buffer
  solubility thermodynamic at 24 h: 2.4 µg/mL (≈ 0.00952 mM)
[1]; phosphate buffer, pH 5.8, aqueous buffer
  solubility thermodynamic at 24 h: 29.9 µg/mL (≈ 0.119 mM)
[1]; phosphate buffer, pH 6.8, aqueous buffer
  solubility thermodynamic at 24 h: 622 µg/mL (≈ 2.47 mM)
[1]; phosphate buffer, pH 7.4, aqueous buffer
  solubility thermodynamic at 24 h: 1720 µg/mL (≈ 6.8 mM)
[2]
  solubility at 24 h: 3700 to 4900 µg/mL (≈ 14.7 to 19.4 mM)
[2]; NaH2PO4—Na2HPO4 pH 7.4 25 mM, final pH 7.29, 92 mOsm
  solubility thermodynamic at 24 h: 3680 µg/mL (≈ 14.6 mM)
[2]; NaH2PO4—Na2HPO4 pH 7.4 50 mM, final pH 7.33, 150 mOsm
  solubility thermodynamic at 24 h: 4880 µg/mL (≈ 19.4 mM)
[2]; NaH2PO4—Na2HPO4 pH 7.4 100 mM, final pH 7.30, 242 mOsm
  solubility thermodynamic at 24 h: 4910 µg/mL (≈ 19.5 mM)
[3]; NaH2PO4—Na2HPO4 pH 7.4, 50 mM, stirred 24 hours at room temperature, final pH 7.33, 150 mOsm
  Concentration of Orellanine: 4880 µg/mL
[3]; Tris-HCl buffer
  solubility thermodynamic at 24 h: 4590 µg/mL
[3]; citrate phosphate buffer
  solubility thermodynamic at 24 h: 5440 µg/mL
[3]; phosphate buffer
  solubility thermodynamic at 24 h: 4560 µg/mL
[4]; NaH2PO4—Na2HPO4 pH 7.4 at 50 mM plus 0.41% NaCl, final pH 7.26, 205 mOsm
  solubility thermodynamic at 24 h: 5310 µg/mL
[4]; NaH2PO4—Na2HPO4 pH 7.4 at 50 mM plus 0.98% NaCl, final pH 7.19, 328 mOsm
  solubility thermodynamic at 24 h: 5900 µg/mL
[4]; NaH2PO4—Na2HPO4 pH 7.4 at 50 mM plus 2.15% NaCl, final pH 7.30, 595 mOsm
  solubility thermodynamic at 24 h: 6430 µg/mL
[5]; citrate phosphate buffer with sodium chloride
  solubility thermodynamic at 24 h: 10500 µg/mL
[5]
  solubility at 24 h: > 10000 µg/mL
[5]; phosphate buffer with sodium chloride
  solubility thermodynamic at 24 h: 11100 µg/mL
Human renal cancer cells
  Killing of human renal cancer cells: killed them with great efficiency
